Results as given in patent US20250092065A1, “2-(INDAZOL-5-YL)-6-(PIPERIDIN-4-YL)-1,7-NAPHTHYRIDINE DERIVATIVES AND RELATED COMPOUNDS AS MODULATORS FOR SPLICING NUCLEIC ACIDS AND FOR THE TREATMENT OF PROLIFERATIVE DISEASES” (REMIX THERAPEUTICS INC., priority 2022, published 2025).

tested on: Target C; assay: HiBiT protein abundance assay, Target C (K562 HiBiT knock-in); type: cell-based, human; details: HiBiT knock-in K562 cells, 24 hours, top dose 10 μM
In short: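 K562 HiBiT knock-in cells (10000/well) were treated 24 h at 37° C with a 10-point 3-fold dilution series (top 10 μM final, ≤0.25% DMSO). HiBiT luminescence was read after lytic LgBiT detection. Percent response used unmodified K562 and DMSO-treated knock-in controls, and IC50 came from a four-parameter fit at 50% of untreated.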

Row | Compound | IC50
1 | Cc1nc2c(F)c(O)c(-c3ccc4nc(N5CCC(NC6CCC6)C5)ccc4n3)cc2o1 (stereo not drawn) [Compound 293, 6-{6-[3-(cyclobutylamino)pyrrolidin-1-yl]-1,5-naphthyridin-2-yl}-4-fluoro-2-methyl-1,3-benzoxazol-5-ol] | < 0.1 µM
2 | Cn1cc2cc(-c3ccc4nc(N5CCC(NC67CC(C6)C7)C5)ccc4n3)c(O)cc2n1 (stereo not drawn) [Compound 297, 5-[6-(3-{bicyclo[1.1.1]pentan-1-ylamino}pyrrolidin-1-yl)-1,5-naphthyridin-2-yl]-2-methylindazol-6-ol] | 1 to 10 µM
3 | Cc1nc2c(C)c(O)c(-c3ccc4nc(N5CCC(NC6(C)CC6)C5)ccc4n3)cc2o1 (stereo not drawn) [Compound 309, 2,4-dimethyl-6-(6-{3-[(1-methylcyclopropyl)amino]pyrrolidin-1-yl}-1,5-naphthyridin-2-yl)-1,3-benzoxazol-5-ol] | < 0.1 µM
4 | Cc1c(O)c(-c2ccc3nc(N4CC[C@H](NC(C)C)C4)ccc3n2)cc2cn(C)nc12 [Compound 320] | < 0.1 µM
5 | Cc1nc2c(F)c(O)c(-c3ccc4nc(N5CCC(NC6(C)CC6)C5)ccc4n3)cc2o1 (stereo not drawn) [Compound 325, 4-fluoro-2-methyl-6-(6-{3-[(1-methylcyclopropyl)amino]pyrrolidin-1-yl}-1,5-naphthyridin-2-yl)-1,3-benzoxazol-5-ol] | < 0.1 µM
6 | Cc1nc2c(F)c(O)c(-c3ccc4nc(N5CCC(NC(C)C)C5)ccc4n3)cc2o1 (stereo not drawn) [Compound 328, 4-fluoro-6-{6-[3-(isopropylamino)pyrrolidin-1-yl]-1,5-naphthyridin-2-yl}-2-methyl-1,3-benzoxazol-5-ol] | < 0.1 µM
7 | COCc1nc2cc(O)c(-c3ccc4nc(N5CCC(NC(C)(C)C)C5)ccc4n3)cc2o1 (stereo not drawn) [Compound 334, 6-{6-[3-(tert-butylamino)pyrrolidin-1-yl]-1,5-naphthyridin-2-yl}-2-(methoxymethyl)-1,3-benzoxazol-5-ol] | 0.1 to 1 µM
8 | CNC1CCN(c2ccc3nc(-c4cc5cn(C)nc5c(C)c4O)ncc3n2)C1 (stereo not drawn) [Compound 337, 2,7-dimethyl-5-{6-[3-(methylamino)pyrrolidin-1-yl]pyrido[3,2-d]pyrimidin-2-yl}indazol-6-ol] | 0.1 to 1 µM
9 | Cc1c(O)c(-c2ncc3nc(N4CCNCC4)ccc3n2)cc2cn(C)nc12 [Compound 338, 2,7-dimethyl-5-[6-(piperazin-1-yl)pyrido[3,2-d]pyrimidin-2-yl]indazol-6-ol] | 0.1 to 1 µM
10 | Cc1nc2cc(O)c(-c3ccc4nc(N5CCC(NC(C)(C)C)C5)ccc4n3)cc2n1C (stereo not drawn) [Compound 339, 6-{6-[3-(tert-butylamino)pyrrolidin-1-yl]-1,5-naphthyridin-2-yl}-1,2-dimethyl-1,3-benzodiazol-5-ol] | 0.1 to 1 µM
11 | Cc1c(O)c(-c2ncc3nc(N4CCC5(CCN5)C4)ccc3n2)cc2cn(C)nc12 (stereo not drawn) [Compound 342, 5-(6-{1,6-diazaspiro[3.4]octan-6-yl}pyrido[3,2-d]pyrimidin-2-yl)-2,7-dimethylindazol-6-ol] | 0.1 to 1 µM
12 | Cc1cc2nc(-c3ccc4nc(N5CCC(NC(C)(C)C)C5)ccc4n3)cn2c(C)n1 (stereo not drawn) [Compound 344, N-tert-butyl-1-(6-{5,7-dimethylimidazo[1,2-c]pyrimidin-2-yl}-1,5-naphthyridin-2-yl)pyrrolidin-3-amine] | 1 to 10 µM
13 | CCc1nc2cc(O)c(-c3ccc4nc(N5CCC(NC(C)(C)C)C5)ccc4n3)cc2o1 (stereo not drawn) [Compound 346, 6-{6-[3-(tert-butylamino)pyrrolidin-1-yl]-1,5-naphthyridin-2-yl}-2-ethyl-1,3-benzoxazol-5-ol] | 1 to 10 µM

Next, values leading:

Row | IC50 | Compound
14 | < 0.1 µM | Cn1cc2nc(-c3ccc4nc(N5CCC(NC(C)(C)C)C5)ccc4n3)c(O)cc2n1 (stereo not drawn) [Compound 298, 5-{6-[3-(tert-butylamino)pyrrolidin-1-yl]-1,5-naphthyridin-2-yl}-2-methylpyrazolo[4,3-b]pyridin-6-ol]
15 | 0.1 to 1 µM | Cn1cc2cc(-c3ccc4nc(N5CC[C@H](N[C@H]6C[C@@H](F)C6)C5)ccc4n3)c(O)cc2n1 [Compound 299, 2-methyl-5-{6-[(3S)-3-{[(1s,3s)-3-fluorocyclobutyl]amino}pyrrolidin-1-yl]-1,5-naphthyridin-2-yl}indazol-6-ol]
16 | 0.1 to 1 µM | Cc1c(O)c(-c2ccc3nc(N4CCC(NC5COC5)C4)ccc3n2)cc2cn(C)nc12 (stereo not drawn) [Compound 302, 2,7-dimethyl-5-{6-[3-(oxetan-3-ylamino)pyrrolidin-1-yl]-1,5-naphthyridin-2-yl}Indazol-6-ol]
17 | < 0.1 µM | Cc1nc2c(C)c(O)c(-c3ccc4nc(N5CCC(NC(C)C)C5)ccc4n3)cc2o1 (stereo not drawn) [Compound 312, 6-{6-[3-(isopropylamino)pyrrolidin-1-yl]-1,5-naphthyridin-2-yl}-2,4-dimethyl-1,3-benzoxazol-5-ol]
18 | < 0.1 µM | Cn1cc2cc(-c3ccc4nc(N5CCC(NC6CCC6)C5)ccc4n3)c(O)c(F)c2n1 (stereo not drawn) [Compound 315, 5-{6-[3-(cyclobutylamino)pyrrolidin-1-yl]-1,5-naphthyridin-2-yl}-7-fluoro-2-methylindazol-6-ol]
19 | < 0.1 µM | Cc1c(O)c(-c2ccc3nc(N4CCC(NC(C)C)C4)ccc3n2)cc2cn(C)nc12 (stereo not drawn) [Compound 318, 5-{6-[3-(isopropylamino)pyrrolidin-1-yl]-1,5-naphthyridin-2-yl}-2,7-dimethylindazol-6-ol]
20 | 0.1 to 1 µM | CN[C@@H]1CCN(c2ccc3nc(-c4cc(F)c5nc(C)cn5c4)ncc3n2)C1 [Compound 331, (3R)-1-(2-{8-fluoro-2-methylimidazo[1,2-a]pyridin-6-yl}pyrido[3,2-d]pyrimidin-6-yl)-N-methylpyrrolidin-3-amine]
21 | 0.1 to 1 µM | CN[C@H]1CCN(c2ccc3nc(-c4cc(F)c5nc(C)cn5c4)ncc3n2)C1 [Compound 332, (S)-1-(2-(8-fluoro-2-methylimidazo[1,2-a]pyridin-6-yl)pyrido[3,2-d]pyrimidin-6-yl)-N-methylpyrrolidin-3-amine]
22 | 0.1 to 1 µM | CC(C)(C)NC1CCN(c2ccc3nc(-c4cc5oc(C6CC6)nc5cc4O)ccc3n2)C1 (stereo not drawn) [Compound 333, 6-{6-[3-(tert-butylamino)pyrrolidin-1-yl]-1,5-naphthyridin-2-yl}-2-cyclopropyl-1,3-benzoxazol-5-ol]
23 | 1 to 10 µM | COc1cc2nc(C3COC3)oc2cc1-c1ccc2nc(N3CCC(NC(C)(C)C)C3)ccc2n1 (stereo not drawn) [Compound 335]
24 | < 0.1 µM | CC(C)(C)NC1CCN(c2ccc3nc(-c4cc5oc(CO)nc5cc4O)ccc3n2)C1 (stereo not drawn) [Compound 336, 6-{6-[3-(tert-butylamino)pyrrolidin-1-yl]-1,5-naphthyridin-2-yl}-2-(hydroxymethyl)-1,3-benzoxazol-5-ol]
25 | 0.1 to 1 µM | Cc1nc2cc(-c3ccc4nc(N5CCC(NC(C)(C)C)C5)ccc4n3)c(O)cc2n1C (stereo not drawn) [Compound 340, 6-{6-[3-(tert-butylamino)pyrrolidin-1-yl]-1,5-naphthyridin-2-yl}-2,3-dimethyl-1,3-benzodiazol-5-ol]
26 | < 0.1 µM | Cn1cc2cc(-c3ccc4nc(N5CCC(NC67CC(O)(C6)C7)C5)ccc4n3)c(O)cc2n1 (stereo not drawn) [Compound 341, 5-{6-[3-({3-hydroxybicyclo[1.1.1]pentan-1-yl}amino)pyrrolidin-1-yl]-1,5-naphthyridin-2-yl}-2-methylindazol-6-ol]
27 | 0.1 to 1 µM | Cc1nc2cc(O)c(-c3ccc4nc(N5CC[C@H](N[C@H]6C[C@H](F)C6)C5)ccc4n3)cc2o1 [Compound 350, 2-methyl-6-{6-[(3S)-3-{[(1r,3r)-3-fluorocyclobutyl]amino}pyrrolidin-1-yl]-1,5-naphthyridin-2-yl}-1,3-benzoxazol-5-ol]
